# From paper PMC11960431, “A novel function of short cationic peptide FP-CATH9 without antimicrobial activity reverses resistance to minocycline in common multidrug-resistant gram-negative bacteria” (Microbiology Spectrum, 2025)
# Ends that are not written are not given here.
# Legend:
# [1] = test system: Clinical K. pneumoniae 3 (minocycline resistance); test: Disk diffusion plate assay, inhibition zone (peptide alone and antibiotic sensitization); settings: for Inhibition zone (mm) Contains FP-CATH9 / Inhibition zone (mm) Normal saline control: K. pneumoniae strain 3, mean ± SD, repeated three times; for Inhibition zone (mm) Contains FP-CATH9: antibiotic disk + FP-CATH9 (20 µg peptide in 10 µL); for Inhibition zone (mm) Normal saline control: antibiotic disk + normal saline, without FP-CATH9
# [2] = test system: Clinical A. baumannii 1 (minocycline sensitive); test: MIC, broth microdilution (CLSI); type: cell-based, Acinetobacter baumannii; settings: peptide alone, repeated three times
# S. aureus ATCC 29213 = test: MIC, broth microdilution (CLSI); type: cell-based; settings: peptide alone, repeated three times
# [3] = test system: Clinical K. pneumoniae 2 (minocycline mediated); type: cell-based, Klebsiella pneumoniae; settings: peptide alone, repeated three times
# [4] = test system: Clinical A. baumannii 2 (minocycline mediated); type: cell-based, Acinetobacter baumannii; settings: peptide alone, repeated three times
# [5] = test system: Clinical K. pneumoniae 1 (minocycline sensitive); test: MIC, broth microdilution (CLSI); type: cell-based, Klebsiella pneumoniae; settings: peptide alone, repeated three times
# E. coli ATCC BW25113 = test: MIC, broth microdilution (CLSI); type: cell-based, Escherichia coli; settings: peptide alone, repeated three times
# [6] = test system: K. pneumoniae ATCC 700603; type: cell-based, Klebsiella pneumoniae; settings: peptide alone, repeated three times
# P. aeruginosa ATCC 27853 [7] = test: MIC, broth microdilution (CLSI); type: cell-based, Pseudomonas aeruginosa; settings: peptide alone, repeated three times
# A. baumannii ATCC 19606 = test: MIC, broth microdilution (CLSI); type: cell-based, Acinetobacter baumannii; settings: peptide alone, repeated three times
# [8] = test system: Clinical P. aeruginosa 3 (minocycline resistance); settings: peptide alone, repeated three times
# Description: (§1) The antimicrobial activity of FP-CATH9 was determined through broth microdilution and plate assays in an antibiotic disk diffusion test.
# (§2) The MIC of FP-CATH9 was determined using broth microdilution as recommended by Clinical and Laboratory Standards Institute (CLSI). Sensitivity to other antibiotics was assessed using the VITEK 2 Compact System (bioMerieux, France). Antimicrobial activity was determined using the Clinical and Laboratory Standards Institute (CLSI) Standard Reference method([17]).
# [9] = test system: Clinical A. baumannii 3 (minocycline resistance); settings: peptide alone, repeated three times
# Description: as §1, §2
# [10] = test system: Clinical K. pneumoniae 3 (minocycline resistance); settings: peptide alone, repeated three times
# Description: as §1, §2
# [11] = test system: Clinical P. aeruginosa 1 (minocycline resistance); settings: peptide alone, repeated three times
# Description: as §1, §2
# [12] = test system: Clinical P. aeruginosa 2 (minocycline resistance); settings: peptide alone, repeated three times
# Description: as §1, §2
# bovine erythrocytes = test: Hemolytic activity; type: cell-based; settings: 5% bovine erythrocyte suspension, 128 µg/mL, 37°C, 1 h, absorbance 540 nm; 0.2% Triton X-100 positive control; mean ± SD
# Description: Refer to the method of a reference ([21]). Determination of hemolytic activity. Fresh bovine blood cells (Guangzhou Hongquan Biotechnology Co., Ltd., No: HQ80074) were washed with normal saline three times and configured into 5% erythrocyte suspension. […] The supernatant was absorbed, and the absorption value was measured at a 540 nm wavelength. Normal saline was used as negative control, and 0.2% Triton X-100 was used as positive control. The percentage of hemolysis rate is calculated by the following formula: hemolysis rate % = A(sample) − A(negative control) / A(positive control) × 100%.
# [13] = test system: Multidrug-resistant K. pneumoniae strain 3; test: Time-killing curve; type: cell-based, Klebsiella pneumoniae; settings: K. pneumoniae strain 3, 10^6 CFU/mL, 37°C, each agent 16 µg/mL
# Description: After 4 h of treatment with minocycline only (16 µg/mL), drug-resistant bacterial cultures were again observed to be growing rapidly.
# Refer to the method of a reference ([19]). The above clinical K. pneumoniae strain 3 was taken in logarithmic stage (oscillatory culture at 37°C) and diluted with fresh MH liquid medium into 10^6 CFU/mL bacterial suspension. […] The bacterial solution added with the drug was placed in an incubator at 37°C for shock culture, and the 50 µL bacterial solution was diluted 1,000 times at 0, 2, 4, 6, 8, 10, and 12 h, respectively. Then, the 50 µL diluted bacteria solution was coated on MH solid medium, and the bacterial colonies were counted after overnight culture at 37°C. Saline was used as a negative control.
# [14] = test system: minocycline-resistant K. pneumoniae strain 3; test: G. mellonella infection assay; type: in vivo, Galleria mellonella; settings: G. mellonella larvae, n = 10, infected with K. pneumoniae strain 3; 16 µg/mL; 7 days
# Description: The G. mellonella model of bacterial infection was used to evaluate the combined protective effect of FP-CATH9 and minocycline. In each G. mellonella group (n = 10), G. mellonella survival was recorded every 24 h after infection. […] After the infected group was injectioned with minocycline -resistant K. pneumoniae strain 3 , the larvae all died within 1 day.
# Refer to the method of a reference ([22]). Monoclonal K. pneumoniae strain 3 was selected and cultivated in 5 mL LB broth using a constant temperature oscillator at 200 rpm/min and 37°C for 12 h. After 12 h, the culture was expanded and diluted at the ratio of 1:100. The logarithmic bacterial solution was taken, washed with normal saline, and then suspended in 1 mL system with a concentration of 1.5 × 10^8 CFU/mL. The experiment was divided into 5 groups: the minocycline-resistant K. pneumoniae strain 3 group (treated group), the group injected with FP-CATH9 (16 µg/mL) alone, the group with minocycline (16 µg/mL) alone, the group with FP-CATH9 (16 µg/mL) + minocycline (16 µg/mL), and the NS group (saline group). […]
# P. aeruginosa ATCC 27853 [15] = test: Disk diffusion plate assay, inhibition zone; type: cell-based, Pseudomonas aeruginosa; settings: MH paper + 10 µL normal saline, Fig 3A
# Description: as §1, §2
# (§3) The concentration of the FP-CATH9 mother solution was 2 mg/mL. The control conditions included MH paper + normal saline (10 µL) , experimental conditions included MH paper + FP-CATH9 (10 µL). Total 10 µL was added to MH paper to detect the dose dependence of sensitization.
# [16] = test system: Multidrug-resistant K. pneumoniae; test: Checkerboard assay, FP-CATH9 and minocycline; settings: 18 h
# [17] = test system: Clinical A. baumannii 3 (minocycline resistance); test: Disk diffusion plate assay, inhibition zone; type: cell-based, Acinetobacter baumannii; settings: Multidrug-resistant A. baumannii strain 3; MH paper + 10 µL normal saline; Fig 3B
# Description: as §1, §2, §3
molecule,measurement,setting,value
"NCC[C@H](O)C(=O)N[C@@H]1C[C@H](N)[C@@H](O[C@H]2O[C@H](CN)[C@@H](O)[C@H](O)[C@H]2O)[C@H](O)[C@H]1O[C@H]1O[C@H](CO)[C@@H](O)[C@H](N)[C@H]1O [AK, amikacin]",Inhibition zone (mm) Contains FP-CATH9,[1],6 mm
same,Inhibition zone (mm) Normal saline control,[1],6 mm
KRFKKFWKK [FP-CATH9],FP-CATH9 MIC,[2],>512 µg/mL
same,FP-CATH9 MIC,S. aureus ATCC 29213,>512 µg/mL
same,FP-CATH9 MIC,[3],>512 µg/mL
same,FP-CATH9 MIC,[4],>512 µg/mL
same,FP-CATH9 MIC,[5],>512 µg/mL
same,FP-CATH9 MIC,E. coli ATCC BW25113,>512 µg/mL
same,FP-CATH9 MIC,[6],>512 µg/mL
same,FP-CATH9 MIC,P. aeruginosa ATCC 27853 [7],>512 µg/mL
same,FP-CATH9 MIC,A. baumannii ATCC 19606,>512 µg/mL
same,FP-CATH9 MIC,[8],>512 µg/mL
same,FP-CATH9 MIC,[9],>512 µg/mL
same,FP-CATH9 MIC,[10],>512 µg/mL
same,FP-CATH9 MIC,[11],>512 µg/mL
same,FP-CATH9 MIC,[12],>512 µg/mL
same,hemolysis,bovine erythrocytes,3.97% ± 0.42%
"CC1(C)S[C@@H]2[C@H](NC(=O)[C@H](N)c3ccccc3)C(=O)N2[C@H]1C(=O)O [AMP, ampicillin]",Inhibition zone (mm) Contains FP-CATH9,[1],6 mm
same,Inhibition zone (mm) Normal saline control,[1],6 mm
"CNC(C)C1CCC(N)C(OC2C(N)CC(N)C(OC3OCC(C)(O)C(NC)C3O)C2O)O1 (centres unmarked) [GN, gentamicin]",Inhibition zone (mm) Contains FP-CATH9,[1],6 mm
same,Inhibition zone (mm) Normal saline control,[1],6 mm
"C[C@@H](O)[C@H]1C(=O)N2C(C(=O)O)=C(S[C@@H]3CN[C@H](C(=O)N(C)C)C3)[C@H](C)[C@H]12 [MEM, meropenem]",Inhibition zone (mm) Contains FP-CATH9,[1],8.1 ± 0.08 mm
same,Inhibition zone (mm) Normal saline control,[1],8.16 ± 0.12 mm
CN(C)c1ccc(O)c2c1C[C@H]1C[C@H]3[C@H](N(C)C)C(O)=C(C(N)=O)C(=O)[C@@]3(O)C(O)=C1C2=O [minocycline],effect on bacterial growth at 10 h (time-killing curve),[13],no inhibitory effect
same,protective effect,[14],little protective effect
same,"Inhibition zone, control",P. aeruginosa ATCC 27853 [15],6 mm
same,MIC,"[16]; Klebsiella pneumoniae, read-out: MIC of minocycline alone",128 µg/mL
same,MIC of minocycline combined with FP-CATH9,"[16]; multidrug-resistant K. pneumoniae, 5 × 10^5 CFU/mL, 37°C",2 µg/mL
same,"Inhibition zone, control",[17],11 mm
same,"Inhibition zone, control","[1]; Multidrug-resistant K. pneumoniae strain 3, MH paper + 10 µL normal saline, Fig 3C",6 mm
"CC(C)(O/N=C(\C(=O)N[C@@H]1C(=O)N2C(C(=O)[O-])=C(C[n+]3ccccc3)CS[C@H]12)c1csc(N)n1)C(=O)O [CAZ, ceftazidime]",Inhibition zone (mm) Contains FP-CATH9,[1],6 mm
same,Inhibition zone (mm) Normal saline control,[1],6 mm
"CO/N=C(\C(=O)N[C@@H]1C(=O)N2C(C(=O)O)=C(CSc3nc(=O)c(=O)[nH]n3C)CS[C@H]12)c1csc(N)n1 [CRO, ceftriaxone]",Inhibition zone (mm) Contains FP-CATH9,[1],6 mm
same,Inhibition zone (mm) Normal saline control,[1],6 mm
"C[C@@H](O)[C@H]1C(=O)N2C(C(=O)O)=C(SCCN=CN)C[C@H]12 [IPM, imipenem]",Inhibition zone (mm) Contains FP-CATH9,[1],9.03 ± 0.05 mm
same,Inhibition zone (mm) Normal saline control,[1],9.06 ± 0.04 mm
"Cc1cc(NS(=O)(=O)c2ccc(N)cc2)no1 [SXT, sulfamethoxazole]",Inhibition zone (mm) Contains FP-CATH9,[1],10.13 ± 0.12 mm
same,Inhibition zone (mm) Normal saline control,[1],10.23 ± 0.17 mm
